Active and inactive are the calls of the source. How the calls were made is not given here.
Target: glucose-6-phosphate dehydrogenase-6-phosphogluconolactonase (Plasmodium falciparum 3D7)
Test: PfG6PD enzyme inhibitors, kinetic NADPH readout, dose response, orthogonal assay, biochemical, kinetic NADPH detection (AID 540269)
Conditions: purified PfG6PD-6PGL

Cc1ccc(S(=O)(=O)/N=C2/C=C(C3C(=O)CC(C)(C)CC3=O)C(=O)c3ccccc32)cc1
IC50: > 80 µM (inactive)

Cc1ccc(NC(=O)c2ccc(Cl)c(N3C(=O)C=CC3=O)c2)cc1
IC50: 28.2 µM

CCOC(=O)c1cnc2ccc(C)cc2c1Sc1ccccc1C(=O)OC
IC50: > 80 µM (inactive)

O=C(Nc1sc2c(c1C(=O)O)CCC2)c1ccc(F)cc1
IC50: 41.3 µM

O=C(Sc1n[nH]c(=O)[nH]c1=O)c1ccccc1
IC50: 22.8 µM

Cc1cccc(NC2=C(NC(=O)c3ccccc3)C(=O)c3ccccc3C2=O)c1
IC50: > 80 µM (inactive)

Cc1nn(-c2ccccc2)c(Cl)c1/C=N/Nc1nc2ccccc2n1C
IC50: > 80 µM (inactive)

O=C(COc1ccccc1F)OCC(=O)c1ccc([N+](=O)[O-])cc1
IC50: > 80 µM (inactive)

CC1COCC(C)N1C1=C(Cl)C(=O)c2ccccc2C1=O (configuration not stated)
IC50: 42.4 µM

O=[N+]([O-])c1ccc(Sc2cccc3cccnc23)c2cccnc12
IC50: > 80 µM (inactive)

COc1ccccc1N1C(=O)C=C(Sc2nc(C)cc(C)n2)C1=O
IC50: > 80 µM (inactive)

O=c1c2ccccc2sn1-c1cc(S(=O)(=O)N2CCOCC2)ccc1N1CCCC1
IC50: 12.5 µM

Fc1cccc(Cl)c1CNc1ccc(N2CCCC2)cc1
IC50: > 80 µM (inactive)

COc1ccc(N2CSC3=C(C#N)C(c4ccc(OC)c(OC)c4)CC(=O)N3C2)c(OC)c1 (configuration not stated)
IC50: > 80 µM (inactive)

O=C1NC(=S)NC(=O)C1=Cc1ccc(Br)s1
IC50: > 80 µM (inactive)

CC(C)Cn1c([N+](=O)[O-])nc2c1c(=O)[nH]c(=O)n2C
IC50: > 80 µM (inactive)

COc1cccc2nc3cc(C)c(C)cc3nc12
IC50: > 80 µM (inactive)

COC(=O)CCC(=O)OC1(C)C(=O)C2=CN(C3CC3)C(c3ccc(OC)cc3)=CC2=C(Br)C1=O (configuration not stated)
IC50: 45.8 µM

CC(C)c1nnc(NC(=O)c2cccc(-n3cnnn3)c2)s1
IC50: 27.4 µM

CC(=NNC(=S)N1CCN(c2ccccn2)CC1)c1nccs1
IC50: > 80 µM (inactive)

O=[N+]([O-])c1ccc2c(c1)-c1ccccc1C2O (configuration not stated)
IC50: 42.9 µM

Cc1c(/C=C/C(=O)c2ccc(Cl)s2)cnn1C
IC50: 41.1 µM

COc1ccc(C(=O)/C=C2\Sc3ccccc3N2C)cc1
IC50: 43.4 µM

O=C(CCc1ccc(S(=O)(=O)N2CCOCC2)cc1)N/N=C/c1ccc(O)c(O)c1O
IC50: 36.5 µM

O=C(Nc1ccccc1C(=O)N/N=C/c1ccco1)c1ccccc1Cl
IC50: > 80 µM (inactive)

Cc1ccccc1N/C(SCc1cccc(Br)c1)=C(/C#N)C(N)=O
IC50: > 80 µM (inactive)

CN1CCN(C(=O)c2sc(=S)n(-c3ccccc3)c2N)CC1
IC50: 50.3 µM

N#Cc1c(C#N)c(SSc2c(C#N)c(C#N)c(N)n2-c2ccccc2)n(-c2ccccc2)c1N
IC50: > 80 µM (inactive)

CCOc1cc(NCc2ccccc2)c2ncn(C(C)C)c2c1
IC50: > 80 µM (inactive)

COc1cc(/C=N/n2cc(-c3ccccc3)[nH]c2=S)cc(OC)c1O
IC50: 11.2 µM

CC1=NOC(=O)/C1=C\c1ccc(-c2ccccc2Br)o1
IC50: > 80 µM (inactive)

O=C(CNc1ccc2c(c1)OCO2)N/N=C\c1cn(Cc2ccccc2)c2ccccc12
IC50: > 80 µM (inactive)

NCCNc1ccc(C(=O)N2c3ccccc3Sc3ccccc32)cc1[N+](=O)[O-]
IC50: 23.5 µM

Cc1ccc(-c2c(C(=O)N/N=C/c3ccsc3)nnn2-c2nonc2N)cc1
IC50: 64.8 µM

CC1=C(O)C(=O)C=C2C1=CC=C1C2(C)CCC2(C)C3CC(C)(C(=O)O)CCC3(C)CCC12C (configuration not stated)
IC50: 45.7 µM

Cn1sc2ccccc2c1=O
IC50: 39.5 µM

CC(=O)Nc1ccc2c(c1)Cc1cc(N3C(=O)C=CC3=O)ccc1-2
IC50: 27.2 µM

NS(=O)(=O)c1ccc(N/N=C/c2ccc(O)c(O)c2O)c([N+](=O)[O-])c1
IC50: > 80 µM (inactive)

Clc1ccc(N=c2ssnc2Cl)nc1
IC50: > 80 µM (inactive)

Cc1ccc(NS(=O)(=O)c2ccccc2Cl)c2c1CC(C)(C)O2
IC50: > 80 µM (inactive)

O=c1c2ccccc2sn1-c1cccc(Cl)c1
IC50: 14.2 µM

Cc1cc(C)c(NC(=S)NCC2CCN(C(C)c3ccccc3)C2)c(C)c1 (configuration not stated)
IC50: > 80 µM (inactive)

Cc1nc2ccccn2c1-c1ccnn1S(=O)(=O)c1ccc(F)cc1
IC50: > 80 µM (inactive)

Oc1ccc(NCc2ccccc2OCc2ccccc2)cc1
IC50: 53.9 µM

CCn1c(SCc2nc3scc(-c4ccccc4)c3c(=O)[nH]2)nnc1-c1cccs1
IC50: 58 µM

CCOc1ccccc1C=NNC(=O)CCCCC(=O)NN=Cc1ccccc1OCC
IC50: > 80 µM (inactive)

Oc1ccc(-c2cn3c(n2)SCC3)cc1O
IC50: 46.5 µM

O=C1C=CC(=O)N1c1ccc2c(c1)C(NC(=O)C(F)(F)F)c1ccccc1-2 (configuration not stated)
IC50: > 80 µM (inactive)

Cc1cnc(C=NNC(N)=S)c2cccc(N)c12
IC50: > 80 µM (inactive)

O=C(Cc1ccccc1)NCC(=O)OCC(=O)c1ccc([N+](=O)[O-])cc1
IC50: 57.9 µM

CC1(C)Nc2ccc(O)cc2-c2c1ssc2=S
IC50: > 80 µM (inactive)

CCC(=O)OCOc1ccc(/C=C2/CCC(CN(C)C)C2=O)cc1 (configuration not stated)
IC50: 36.4 µM

CN1CCN(C(=S)C(=O)Nc2ccc(Br)cc2)CC1
IC50: 57.7 µM

COc1cc(NCCCn2cnc3c(OCc4ccccc4)ncnc32)cc(OC)c1OC
IC50: > 80 µM (inactive)

O=C1OC(c2ccc3ccccc3c2O)(c2ccc3ccccc3c2O)c2ccccc21
IC50: > 80 µM (inactive)

c1nc(SSc2ncnc3nc[nH]c23)c2[nH]cnc2n1
IC50: 27 µM

COc1cc(N=c2ssnc2Cl)c(OC)cc1Cl
IC50: 36.8 µM

Cc1ccc(-n2sc3cc(F)ccc3c2=O)c(C)c1
IC50: 12.5 µM

CCc1cc(-c2n[nH]c(C)c2-c2nc3ccccc3n2C)c(O)cc1O
IC50: 9.3 µM

C=CCOc1c(Cl)cc(CNc2ccc3[nH]c(=O)[nH]c3c2)cc1OC
IC50: > 80 µM (inactive)

c1ccc(SSc2ccccn2)nc1
IC50: 64.1 µM

C[C@H](CO)N1C[C@H](C)[C@@H](CN(C)C(=O)Nc2ccc(C(F)(F)F)cc2)Oc2c(cccc2N(C)C)C1=O
IC50: > 80 µM (inactive)

Cc1ccccc1-n1sc2cc(F)ccc2c1=O
IC50: 10.2 µM

Oc1ccc(C23CC4CC(CC(C4)C2)C3)cc1O
IC50: 37.8 µM

Cc1cc(C)nc(NC(N)=NCCc2ccccc2)n1
IC50: > 80 µM (inactive)

COc1cc(OC)c(C2CC(=O)N3CN(c4ccccc4)CSC3=C2C#N)cc1OC (configuration not stated)
IC50: > 80 µM (inactive)

COc1cc(CNc2ccc(N3CCCC3)cc2)ccc1OCc1ccccc1F
IC50: > 80 µM (inactive)

CCOC(=O)Cc1csc(-n2sc3ccccc3c2=O)n1
IC50: 31.3 µM

CN(C)c1ccc2nc3ccc(=O)cc-3sc2c1
IC50: > 80 µM (inactive)

O=C1C(=Cc2cccc(O)c2O)SC(=S)N1CCCN1CCOCC1
IC50: 28.2 µM

Cc1ccc2nc(SCC(=O)NC3CCCc4ccccc43)[nH]c2c1 (configuration not stated)
IC50: > 80 µM (inactive)

COC(=O)CCC(=O)Nc1sc(Cc2ccccc2)c(C)c1C(N)=O
IC50: 35.1 µM

CC1(OC(=O)C2CCCC2)C(=O)C=C2C=C(c3ccsc3)N(CCc3c[nH]c4ccccc34)C=C2C1=O (configuration not stated)
IC50: > 80 µM (inactive)

CC(C)(C)c1ccc(O)c(O)c1
IC50: 48.6 µM

Cc1[nH]c2ccccc2c1/C=N/NC(=O)c1cccc(S(=O)(=O)Nc2ccccc2Cl)c1
IC50: 59.3 µM

COC1=C(Br)C(=O)c2nc(C)ccc2C1=O
IC50: > 80 µM (inactive)

Cc1ccc(S(=O)(=O)SC/C=C/CSS(=O)(=O)c2ccc(C)cc2)cc1
IC50: 73 µM

O=C(Nc1ccc(N2CCOCC2)c(Cl)c1)c1ccc(Cl)cc1
IC50: > 80 µM (inactive)

S=c1ncc2[nH]c(=S)[nH]c2[nH]1
IC50: 64.4 µM

COc1ccc(CNC(=O)Cc2cn(C)c3ccccc23)c(OC)c1
IC50: > 80 µM (inactive)

Cc1cc(C)c(S(=O)(=O)/N=C2/C=C(SCC(=O)O)C(=O)c3ccccc32)cc1C
IC50: > 80 µM (inactive)

COc1cc(/C=C2\CC/C(=C\c3cc(OC)c(O)c(OC)c3)C2=O)cc(OC)c1O
IC50: > 80 µM (inactive)

Cc1ccc(C(=O)NCC(=O)NCC(=O)OCC(=O)c2ccc([N+](=O)[O-])cc2)cc1
IC50: > 80 µM (inactive)

CCN1CCCC1CNC(=O)c1ccc2c(c1)NC(=O)/C(=C\c1ccc(C)cc1)S2 (configuration not stated)
IC50: 6.79 µM

CCC(C)N(CCNC(=O)c1ccc2c(c1)NC(=O)c1ccccc1S2)C1CCCCC1 (configuration not stated)
IC50: 6.35 µM

COc1cc(/C=C2\SC(c3ccc(C)cc3)=NC2=O)cc(OC)c1O
IC50: > 80 µM (inactive)

CCNc1ccccc1CP(=O)(c1ccccc1)c1ccccc1O (configuration not stated)
IC50: > 80 µM (inactive)

C[c-]1[c-](C)[c-](C)[c-](C)[c-]1C.[Fe].c1cc2nccc(N3CCCC3)[c-]2c1 (configuration not stated)
IC50: 52.9 µM

CCN(CC)C(=S)SSC(=S)N(CC)CC
IC50: > 80 µM (inactive)

CCOC(=O)CSc1nnc(NC(=O)c2cccc([N+](=O)[O-])c2)s1
IC50: > 80 µM (inactive)

Nc1c(C(=O)Nc2ccc(F)cc2)sc(=S)n1-c1ccccc1F
IC50: > 80 µM (inactive)

O=C1C=CC(=O)N1c1ccc(-c2nc3ccccc3o2)cc1
IC50: > 80 µM (inactive)

COC(=O)CCC(=O)OC1(C)C(=O)C2=CN(c3ccc(OC)cc3)C(c3ccc(OC)cc3)=CC2=C(Br)C1=O (configuration not stated)
IC50: > 80 µM (inactive)

O=C1Nc2ccccc2C(=O)C1(Cl)Cc1ccccc1 (configuration not stated)
IC50: > 80 µM (inactive)

O=C(CNC(=O)c1cccs1)NCC(=O)OCC(=O)c1ccc([N+](=O)[O-])cc1
IC50: 62.9 µM

COc1cc(O)c(C(=O)O)c(-c2cc(O)c(O)cc2C)c1
IC50: 19.4 µM

CC(Cc1ccc(O)c(O)c1)C(C)Cc1ccc(O)c(O)c1 (configuration not stated)
IC50: 54.9 µM

C=CCc1c(C)[nH]c(=S)c(C#N)c1C
IC50: > 80 µM (inactive)

CN1/C(=C\C(=O)c2cccs2)Sc2ccccc21
IC50: 26.1 µM

CN(C)S(=O)(=O)c1cccc(-n2sc3ccccc3c2=O)c1
IC50: 12.8 µM

O=C1C=CC(=O)N1CCCCCCCCCCN1C(=O)C=CC1=O
IC50: > 80 µM (inactive)

CCc1ccccc1N1CSC2=C(C#N)C(c3ccccc3F)CC(=O)N2C1 (configuration not stated)
IC50: > 80 µM (inactive)

O=C(CSc1nc2ccccc2[nH]1)NC1CCCc2ccccc21 (configuration not stated)
IC50: > 80 µM (inactive)

COc1cccc(C=Nc2cc(C(C)C)c(O)cc2C)c1O
IC50: > 80 µM (inactive)

Brc1cc2[nH]cnc2c2ccccc12
IC50: > 80 µM (inactive)

CCS(=O)(=O)N1CCN(c2ccc([N+](=O)[O-])c(NC(C)c3ccccc3)c2)CC1 (configuration not stated)
IC50: > 80 µM (inactive)

N#C/C(C(=O)Nc1ccc(Cl)cc1)=C(/S)Nc1ccccc1
IC50: 41.5 µM
